According to patent publication US7456288B2, “Heterocyclic compounds and methods of making and using thereof” (Reddy US Therapeutics, Inc., priority 2003, dated 2008):

Columns and labels:
IL-6 = test: Glycated albumin-stimulated endothelial cell production of cytokine IL-6 (ELISA); type: cell-based; settings: read-out: % of inhibition of proinflammatory cytokine IL-6
Description: The effectiveness of the compounds of the present invention in inhibiting glycated protein- and AGE-induced inflammation can be determined using the assays described herein and in U.S. Provisional Patent Application Ser. No. 60/259,306, which is incorporated by reference in herein its entirety. Such assays comprise measurement of the specific activity of biological components involved in a known cellular response. The assays provide a measurable response in which the activity of the compounds is determined. One aspect of the present invention comprises measurement of the effects of compounds on an inflammatory response by cells to the presence of a stimulating agent. […] The amount of cytokines produced is determined by measurement protocols known to those skilled in the art. The compounds of the present invention are then added to the assay and the production of cytokines is measured. From the comparison of the assay without the compound with the assay with the compound, the biological effect of the compound can be determined. […]
Assays comprise endothelial cells that are stimulated in an inflammatory response by the presence of the glycated protein, glycated human serum albumin. […] Preferably, although not required, the amount of cytokine produced is determined using immunological methods, such as ELISA assays. […]

MCP-1 = test: Glycated albumin-stimulated endothelial cell production of cytokine MCP-1 (ELISA); type: cell-based; settings: read-out: % of inhibition of proinflammatory cytokine MCP-1; for inhibition at 5 µM: concentration 5 μM
Description: The effectiveness of the compounds of the present invention in inhibiting glycated protein- and AGE-induced inflammation can be determined using the assays described herein and in U.S. Provisional Patent Application Ser. No. 60/259,306, which is incorporated by reference in herein its entirety. Such assays comprise measurement of the specific activity of biological components involved in a known cellular response. The assays provide a measurable response in which the activity of the compounds is determined. One aspect of the present invention comprises measurement of the effects of compounds on an inflammatory response by cells to the presence of a stimulating agent. Yet another aspect of the present invention includes an assay comprising endothelial cells that are stimulated by the addition of a glycated protein, the stimulating agent. The endothelial cells respond by producing specific cytokines. The amount of cytokines produced is determined by measurement protocols known to those skilled in the art. The compounds of the present invention are then added to the assay and the production of cytokines is measured. From the comparison of the assay without the compound with the assay with the compound, the biological effect of the compound can be determined. The compound may have an inhibitory effect, a stimulatory effect, or no effect at all. Compounds for treatment of inflammation include those that have an inhibitory effect.
Assays comprise endothelial cells that are stimulated in an inflammatory response by the presence of the glycated protein, glycated human serum albumin. Such endothelial cells produce cytokines. A method in accordance with the present invention comprises measurement of the amount of the cytokine IL-6, and another aspect of the present invention comprises measurement of the amount of the cytokine MCP-1. Preferably, although not required, the amount of cytokine produced is determined using immunological methods, such as ELISA assays. The methods of the present invention are not limited by the type of assay used to measure the amount of cytokine produced, and any methods known to those skilled in the art and later developed can be used to measure the amount of cytokines produced in response to the stimulating agent and to the compound having unknown activity.
Glycated albumin stimulates endothelial production of IL-6 and MCP-1. […] Because of the well established role of these cytokines in vascular diseases, screening for compounds that block AGE-induction of these cytokines provides a novel approach for identifying therapeutic agents that block AGE-induced inflammation in vivo.
Once the baseline response to the stimulating agent for the production of cytokines by the endothelial cells is established, thus comprising the control levels for the screening assay, the methods comprise addition of compounds having unknown activities. The effect of the compound on the baseline response is determined by comparing the amount of cytokine produced in the presence of the stimulating agent and the amount of cytokine produced in the presence of the stimulating agent and the compound of the present invention. In one method, compounds that have inhibitory effects on the inflammation of the cells in the presence of glycated albumin are then used as therapeutic agents. One or more compounds may be added to the screening assay. Combinations or mixtures of compounds can be added. Different amounts and formulations of the compounds are added to determine the effects on the screening assay. The screening assay also may be used to determine stimulatory compounds or compounds that have no effects in the assay.

C/C(=C1\SC(=O)NC1=O)c1ccc(OCCOc2c(-c3ccc(Cl)cc3)n(C)c3ccccc3c2=O)cc1
inhibition at 5 µM (IL-6; concentration 5 μM): 49%

Cn1c(-c2ccc(Br)cc2)c(OCCOc2ccc(/C=C3/SC(=O)NC3=O)cc2)c(=O)c2ccccc21
inhibition at 5 µM (MCP-1): 44%

C/C(=C1\SC(=O)NC1=O)c1ccc(OCCOc2c(-c3ccc(F)c(F)c3)n(C)c3ccccc3c2=O)cc1
inhibition at 4.4 µM (MCP-1; concentration 4.4 μM): 50%

C/C(=C1/SC(=O)NC1=O)c1ccc(OCCOc2c(-c3ccc(F)c(F)c3)n(C)c3ccccc3c2=O)c(Cl)c1
inhibition at 5 µM (MCP-1): 61%

CCn1c(-c2ccc(F)cc2)c(OCCOc2ccc(/C(C)=C3/SC(=O)NC3=O)cc2)c(=O)c2ccccc21
inhibition at 6.5 µM (MCP-1; concentration 6.5 μM): 50%

C/C(=C1\SC(=O)NC1=O)c1ccc(OCCOc2c(-c3ccc(F)c(F)c3)n(C)c3ccccc3c2=O)c(F)c1
inhibition at 7 µM (MCP-1; concentration 7 μM): 50%

COc1cc(OC)c2c(=O)c(OCCOc3ccc(/C(C)=C4\SC(=O)NC4=O)cc3)c(-c3ccc(OC)c(OC)c3)oc2c1 [Example 1, 5-[-1-(4-{2-[2-(3,4-Dimethoxyphenyl)-5,7-dimethoxy-4-oxo-4h-3-chromenyloxy]ethoxy}phenyl)ethylidene]-1,3-thiazolane-2,4-dione]
melting point: 205 to 206 °C

CCCc1nn(C)c2c(=O)n(CCNc3ccc(/C(C)=C4\SC(=O)NC4=O)cc3)c(-c3ccc(OC)c(OC)c3)nc12 [Example 46, 5-[(E,Z)-1-(4-{2-[5-(3,4-Dimethoxyphenyl)-1-methyl-7-oxo-3-propyl-6,7-dihydro-1H-pyrazolo[4,3-d]pyrimidin-6-yl]ethylamino}phenyl)ethylidene]1,3-thiazolane-2,4-dione]
melting point: 215 to 218 °C

C/C(=C1\SC(=O)NC1=O)c1ccc(OCCOc2c(-c3ccc(F)cc3)n(C)c3ccccc3c2=O)cc1 [drawing 117]
inhibition at 4.64 µM (IL-6; concentration 4.64 μM): 50%

C/C(=C1\SC(=O)NC1=O)c1ccc(OCCOc2c(-c3ccc(F)cc3)n(C)c3ccccc3c2=O)cc1 [drawing 118]
inhibition at 7.9 µM (MCP-1; concentration 7.9 μM): 50%
